Experimental data reported in article PMC11727334, “A self-immolative Kdn-glycoside substrate enables high-throughput screening for inhibitors of Kdnases” (Glycobiology, 2024).
Entries after “also recorded” stand apart in the source; their conditions may differ. Like-named read-outs stand apart in the source and are kept apart here.

Tests used:
[1] = target: T1, Kdnase produced by A. fumigatus (AfK) (Aspergillus fumigatus, UniProt Q4WQS0); assay: Inhibition assay of recombinant AfK using 4MU-Kdn as substrate; type: biochemical; conditions: for IC50: read-out: IC50
T1 construct: AfK was expressed and purified as described by Telford et al; made in house
From the text: (§1) We purchase fresh commercial material for compounds 13 and 14 and performed inhibition assays using recombinant AfK (Methods, Fig. S8, Supporting Information). We determined IC50 values in quadruplicate using 4MU-Kdn as the substrate ([Yeung et al. 2013]). […] We submitted both compounds to a pan-assay interference compounds (PAINS) filter, a compilation of chemical substructures known to show promiscuous biological activities ([Baell and Nissink 2018]). […] We performed standard inhibition assays as described earlier using inhibitor 13 and these recombinant enzymes. […] We also tested inhibitor 13 with the sialidase MvNA, the closest structural homologue to AfK, that is known to cleave a multitude of substrates including Kdn glycosides ([Telford et al. 2011]).
(§2) Each 200 μM reaction mixture was incubated at rt for 2 min prior to the addition of purified sialidase. Inhibitor was added to the reaction mixture and allowed to incubate at rt between 0–60 min in 100 mM sodium acetate buffer pH 4.0 and 0.01% BSA prior to the addition of substrate. The kinetic parameters were determined from initial rate measurements using a substrate concentration of Km/4. The progress of the reaction was continuously monitored for 15 min using a fluorescence spectrophotometer (BioTek Neo 2) and excitation and emission wavelengths of 360 and 450 nm, respectively.

AfK [2] = target: T2, AfK (Aspergillus fumigatus, UniProt Q4WQS0); assay: HTS assay of AfK activity using Kdn glycoside 4 (384-well, stop solution); type: biochemical
T2 construct: AfK was expressed and purified as described by Telford et al; made in house
Description: We next miniaturized our assay for use in a 384-well microplate format by optimizing the quantity of detergent and checking for fluorescent signal stability (Figs 2A,S6 and S7 Supporting Information). In each well, we added a solution of buffer containing AfK (50 nM) and then added a library compound using a pin tool. We included both detergent (0.2% (v/v) Tween-20) and BSA (0.01% BSA) to reduce false positives arising from aggregation prone compounds ([Feng et al. 2007]). We then equilibrated the mixture prior to the addition of substrate 4, and the resultant solution was incubated for 1 h after which stop solution was added. To ensure cyclization was complete, the mixture was allowed to react for 1 h prior to measuring the fluorescence. Candidate hits identified in this primary screen were cherry picked and delivered into a gold plate that was used to confirm hits.
To each well in a 384-well microplate, enzyme (20 μL of a 50 nM stock solution) in reaction buffer (100 mM NaOAc, 0.2% Tween-20, 0.01% BSA, pH 4) was added to a library compound (200 nL of 20 μM TargetMol, 10 μM Chembridge), and this mixture was incubated at rt for 1 h. Then, substrate 4 (20 μL of a 50 μM stock) was added and the resultant mixture was incubated at rt for an additional 1 hr. Following addition of stop solution (40 μL of 1 M aqueous K2CO3, pH ≈ 12) to the mixture the plate was incubated for 1 h at rt. Next, the fluorescence for each well was measured (BioTek Neo 2) using an excitation and an emission wavelength of 360 and 450 nm, respectively. The collected data was analyzed using Prism 7.0. We used the known mechanism-based inactivator 2,3-diF-Kdn (3) as the positive control ([Watts et al. 2006]; [Khazaei et al. 2015]). That is, using 2,3-diFKdn at a concentration of 30 μM, following a 10 min incubation, gives a background signal that equates to >90% inhibition.

MvNA = MvNA (Micromonospora viridifaciens, UniProt Q02834); assay: Differential scanning fluorimetry (DSF) thermal shift assay, MvNA; type: binding; conditions: inhibitor 500 µM; for ΔTm at 500 µM: Table S4, read-out: Thermal shift (ΔTm) relative to DMSO (2.5%) control; for protein melting temperature (DSF, Table S3): pH 5.5, 5–10 µM enzyme
Description: (§3) Table S3. Differential scanning fluorometry-based (DSF) assay for inhibitors 2, 13, and 17 binding to Af, At, Tr and MvNA. Protein thermal shifts(ΔTm) using DMSO (2.5%), and inhibitors 2, 13, and 17 at 500 µM against the Kdnase of Af, At, Tr and MvNA. Assay done using 5–10 µM enzyme and 100 mM pH 4.0 NaOAc (pH 5.5 MvNA). A temperature range of 25°C to 95°C was used with a gradient of 0.05°C/sec. […]
(§4) Table S4. Thermal shifts (ΔTm) for stabilization of AfK, AtK, TrK and MvNA on inhibitor binding relative to the DMSO (2.5%) control. […]

[3] = target: T1, Kdnase produced by A. fumigatus (AfK); parameters: method as in Telford et al. (3); conditions: Table S2; ref Telford et al. (3); cited from earlier work
AtK = assay: Differential scanning fluorimetry (DSF) thermal shift assay, AtK; type: binding, Aspergillus terreus; conditions: inhibitor 500 µM; for Thermal shift (ΔTm) relative to DMSO (2.5%) control: Table S4; for protein melting temperature (DSF, Table S3): 100 mM pH 4.0 NaOAc, 5–10 µM enzyme
From the text: (§5) We next used a separate biophysical technique, differential scanning fluorimetry (DSF), to confirm that these compound bind to the various Kdnases. Specifically, we measured protein melting temperatures in the presence of Kdn2en (2) and candidate ligands 13 and 17 (Fig. 3D). […] We repeated this DSF assay on AtK and TrK and we observed similar trends in thermal shifts (Fig. S14 and Tables S2,S3 and S4, Supporting Information). […] Accordingly, further follow up on this compound would need to be pursued with an awareness of this possibility.
as §3, §4

AfK [4] = target: T2, AfK; assay: Differential scanning fluorimetry (DSF) thermal shift assay, AfK; type: binding; conditions: for effect on thermal stability of the folded enzyme (DSF, in words): AfK; for protein melting temperature (DSF, Table S3): inhibitor 500 µM, 100 mM pH 4.0 NaOAc, 5–10 µM enzyme; for ΔTm at 500 µM: read-out: Thermal shift (ΔTm) relative to DMSO (2.5%) control
From the text: as §5, §3, §4

TrK = assay: Differential scanning fluorimetry (DSF) thermal shift assay, TrK; type: binding, Trichophyton rubrum; conditions: for Thermal shift (ΔTm) relative to DMSO (2.5%) control: Table S4; for Thermal shift (ΔTm) relative to DMSO (2.5%) control / protein melting temperature (DSF, Table S3): inhibitor 500 µM; for protein melting temperature (DSF, Table S3): 100 mM pH 4.0 NaOAc, 5–10 µM enzyme
From the text: as §5, §3, §4

[5] = target: Aspergillus terreus Kdnase (AtK) (Aspergillus terreus, UniProt Q0CMX0); assay: Inhibition assay of recombinant AtK using Kdn4MU as substrate; type: biochemical
From the text: as §1, §2

[6] = target: Trichophyton rubrum Kdnase (TrK) (Trichophyton rubrum, UniProt A0A178EUH2); assay: Inhibition assay of recombinant TrK using Kdn4MU as substrate; type: biochemical
From the text: as §1, §2

neuraminidase MvNA = neuraminidase MvNA (Micromonospora viridifaciens, UniProt Q02834); assay: Inhibition assay of the sialidase MvNA using Kdn4MU as substrate; type: biochemical
From the text: as §1
as §2, with “Inhibitor was added to the reaction mixture and allowed to incubate at rt between 0–60 min in 100 mM sodium acetate buffer pH 4.0 and 0.01% BSA prior to the addition of substrate.” left out

Chain of Trichophyton rubrum Kdnase (TrK) (A0A178EUH2 entry or part of it): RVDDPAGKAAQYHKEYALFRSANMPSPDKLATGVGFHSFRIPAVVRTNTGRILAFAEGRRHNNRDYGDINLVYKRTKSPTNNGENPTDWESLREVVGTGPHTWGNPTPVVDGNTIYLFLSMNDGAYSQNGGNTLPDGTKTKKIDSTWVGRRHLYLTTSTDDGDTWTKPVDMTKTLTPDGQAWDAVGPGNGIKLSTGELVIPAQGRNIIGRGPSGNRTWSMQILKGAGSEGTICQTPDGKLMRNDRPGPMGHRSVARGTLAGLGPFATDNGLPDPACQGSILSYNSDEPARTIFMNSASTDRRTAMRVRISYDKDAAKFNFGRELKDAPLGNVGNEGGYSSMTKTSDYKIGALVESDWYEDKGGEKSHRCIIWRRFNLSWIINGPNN
Chain of MvNA (Q02834 38-647): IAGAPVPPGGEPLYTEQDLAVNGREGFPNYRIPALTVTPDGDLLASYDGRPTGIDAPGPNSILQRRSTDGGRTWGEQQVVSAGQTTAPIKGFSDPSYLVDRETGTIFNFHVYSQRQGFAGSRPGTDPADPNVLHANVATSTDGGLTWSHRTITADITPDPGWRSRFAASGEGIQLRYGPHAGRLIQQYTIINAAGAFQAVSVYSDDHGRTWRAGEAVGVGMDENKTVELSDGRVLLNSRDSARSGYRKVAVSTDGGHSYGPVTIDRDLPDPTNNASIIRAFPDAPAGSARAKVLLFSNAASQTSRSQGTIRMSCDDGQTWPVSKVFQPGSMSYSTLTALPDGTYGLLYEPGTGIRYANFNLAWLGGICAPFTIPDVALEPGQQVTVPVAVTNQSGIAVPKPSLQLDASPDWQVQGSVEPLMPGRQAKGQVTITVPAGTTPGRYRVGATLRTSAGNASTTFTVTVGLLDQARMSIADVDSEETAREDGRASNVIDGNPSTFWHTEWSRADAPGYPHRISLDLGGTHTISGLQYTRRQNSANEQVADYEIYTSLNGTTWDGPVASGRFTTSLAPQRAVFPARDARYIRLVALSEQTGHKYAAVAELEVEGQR
T2 sequence (Q4WQS0 21-406): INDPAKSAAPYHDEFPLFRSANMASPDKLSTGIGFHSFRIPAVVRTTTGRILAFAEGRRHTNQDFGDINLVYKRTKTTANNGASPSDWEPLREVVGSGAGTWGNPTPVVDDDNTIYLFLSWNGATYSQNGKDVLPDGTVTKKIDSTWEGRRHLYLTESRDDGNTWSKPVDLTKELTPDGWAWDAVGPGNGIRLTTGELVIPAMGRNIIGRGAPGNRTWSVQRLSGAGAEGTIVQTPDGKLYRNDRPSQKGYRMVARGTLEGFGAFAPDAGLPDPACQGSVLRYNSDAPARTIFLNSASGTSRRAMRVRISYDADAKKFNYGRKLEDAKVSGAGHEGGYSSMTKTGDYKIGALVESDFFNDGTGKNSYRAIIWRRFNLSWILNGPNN
T1 sequence (Q4WQS0 21-406): as above
Chain of Aspergillus terreus Kdnase (AtK) (Q0CMX0 entry or part of it): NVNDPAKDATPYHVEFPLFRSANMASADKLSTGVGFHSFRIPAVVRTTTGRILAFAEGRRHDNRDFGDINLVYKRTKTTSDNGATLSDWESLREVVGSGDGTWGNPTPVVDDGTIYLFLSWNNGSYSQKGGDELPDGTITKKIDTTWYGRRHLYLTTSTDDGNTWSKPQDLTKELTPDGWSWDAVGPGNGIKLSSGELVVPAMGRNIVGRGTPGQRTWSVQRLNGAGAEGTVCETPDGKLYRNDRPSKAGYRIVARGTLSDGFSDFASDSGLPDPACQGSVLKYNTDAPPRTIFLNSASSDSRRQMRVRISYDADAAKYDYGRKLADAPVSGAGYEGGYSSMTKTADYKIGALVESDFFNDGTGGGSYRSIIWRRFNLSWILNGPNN
Chain of neuraminidase MvNA (Q02834 38-647): as the sequence (Q02834 38-647) above

Structure (SMILES): O=C(O)/C=C/c1ccc(O)c(O)c1 [caffeic acid, reference compound]
- IC50 ([1]; Fig. S10): ~500 µM

Structure (SMILES): O=C(O)[C@]1(F)O[C@@H]([C@H](O)[C@H](O)CO)[C@H](O)[C@@H](O)[C@H]1F [compound 3, 2,3-diF-α-Kdn]
- inhibition at 30 µM (AfK [2]; 30 μM, 10 min incubation): > 90%
- activity at 30 µM (AfK [2]; 30 μM, reacted with AfK for 10 min, read-out: fluorescent signal relative to the uninhibited sample): < 10%
- Hill Slope (AfK [2]; following incubation (10 min)): -1.2
- IC50 (AfK [2]; following incubation (10 min), read-out: apparent IC50): 3.1 µM

Structure (SMILES): O=C(O)C1=C[C@H](O)[C@@H](O)[C@H]([C@H](O)[C@H](O)CO)O1 [compound 2, Kdn2en, reference compound]
- ΔTm at 500 µM (MvNA): 0.5 °C
- protein melting temperature (DSF, Table S3) (MvNA): 54.4 ± 0.1 °C
- IC50 [3]: 556 µM
- Ki [3]: 102 µM
- Thermal shift (ΔTm) relative to DMSO (2.5%) control (AtK): +3.4 ± 0.1 °C
- protein melting temperature (DSF, Table S3) (AtK): 55.3 ± 0.1 °C
- effect on thermal stability of the folded enzyme (DSF, in words) (AfK [4]): positive unfolding temperature shifts
- protein melting temperature (DSF, Table S3) (AfK [4]): 53.2 ± 0.1 °C
- ΔTm at 500 µM (AfK [4]): 1.7 °C
- Thermal shift (ΔTm) relative to DMSO (2.5%) control (TrK): +15.0 ± 0.2 °C
- protein melting temperature (DSF, Table S3) (TrK): 49.7 ± 0.2 °C

Structure (SMILES): O=C(/C=C/c1ccc(O)c2c1[C@H](C(=O)O)[C@@H](c1ccc(O)c(O)c1)O2)O[C@H](Cc1ccc(O)c(O)c1)C(=O)O [compound 13, lithospermic acid]
- IC50 [5]: 14.4 ± 0.07 µM
- mode of inhibition ([5]; AtK): competitively inhibited
- Hill coefficient ([5]; Table 1, 37 °C, pH 4.0): −1.36
- mode of inhibition (Lineweaver-Burk plots) ([1]; AfK): competitive inhibitors
- fold lower IC50 value than that reported for Kdn2en 2 ([1]; AfK, Kdn2en value from Yeung et al. 2013): 24 fold
- IC50 ([1]; Table 1, 37 °C, Kdn4MU substrate, NaOAc 100 mM pH 4.0, 0.01% BSA): 22.8 ± 1 µM
- Hill coefficient ([1]; Table 1, 37 °C, pH 4.0): −1.32
- Ki ([1]; Table 1, calculated Ki = IC50/(([S]/Km) + 1), read-out: Ki): 18.7 µM
- Hill ([1]; Table S2, values from this work): –1.32
- time-dependent inhibition ([1]; time points 0, 10 and 60 mins, 50 µM Kdn4MU 1 substrate): no time dependent changes in calculated IC50 values
- ΔTm at 500 µM (MvNA): 1 °C
- protein melting temperature (DSF, Table S3) (MvNA): 54.9 ± 0.4 °C
- IC50 [6]: 11.8 ± 0.1 µM
- Hill coefficient ([6]; Table 1, 37 °C, pH 4.0): −0.80
- mode of inhibition ([6]; TrK): competitively inhibited
- IC50 (neuraminidase MvNA): 347 ± 2 µM
- Hill coefficient (neuraminidase MvNA; Table 1, 37 °C, pH 5.5): −0.90
- inhibitory activity verified in repeat assay of HTS hits (AfK [2]; TargetMol library pilot screen): inhibit AfK
- Thermal shift (ΔTm) relative to DMSO (2.5%) control (AtK): –0.8 ± 0.1 °C
- protein melting temperature (DSF, Table S3) (AtK): 51.1 ± 0.1 °C
- effect on thermal stability of the folded enzyme (DSF, in words) (AfK [4]): stabilizes neither AfK; also recorded: no effect on the stability of AfK
- protein melting temperature (DSF, Table S3) (AfK [4]): 51.4 ± 0.1 °C
- ΔTm at 500 µM (AfK [4]): -0.1 °C
- Thermal shift (ΔTm) relative to DMSO (2.5%) control (TrK): +13.7 ± 0.1 °C
- effect on thermal stability of the folded enzyme (DSF, in words) (TrK; TrK): does stabilize TrK
- protein melting temperature (DSF, Table S3) (TrK): 48.4 ± 0.1 °C
